Reference: patent US20240108634A1, “COMPOSITIONS AND METHODS FOR INHIBITING YAP” (The United States Government as represented by the …, priority 2021, published 2024)
Where two headings read alike, the source gives them in different places.

Assays:
[1] = test system: normal human neurons; test: TUNEL staining of normal human neurons; type: cell-based; conditions: 48 h exposures
Text: Data shown are mean+S.D., n=3.
Materials and Methods. Cell culture, vectors and reagents. Normal mature human neurons were obtained from ScienCell (Carlsbad, CA). Lines were routinely tested to confirm the absence of mycoplasma and authenticated by short tandem repeat profiling (ATCC). The myc-tagged TEAD (pRK5-Myc-TEAD1) and HA-tagged YAP1 (pCl-HA-YAP) vectors were used for mammalian expression and TEAD was subcloned into pGEX-2TK, while YAP was subcloned into pET-14b for bacterial expression and purification. DNA transfections were performed using Effectene transfection reagent according to the manufacturer (QIAGEN) and lentiviral transductions were performed as previously described (Rosenbluh J, et al. (2012) Cell 151: 1457-1473). Large-scale syntheses of NSC682769 was performed by New England Discovery Partners, Branford, CT. The other reagents including kits for ALT, AST and creatinine level determinations were from Sigma-Aldrich.

[2] = test system: LN229 and GBM39 cells; test: GBM cell proliferation; type: cell-based, human; conditions: 0.1, 1, 2 μM
Text: (§1) Cells were layered in soft agar to evaluate anchorage-independent growth in the presence of the indicated concentrations of inhibitor and colonies counted following 14 days of growth. Representative crystal violet stained images are shown below. Data represent mean+S.D. of three independent experiments. […] Cells were placed in Boyden chambers and allowed to migrate towards BSA (white bars), vitronectin (light yellow bars), or fibronectin (dark yellow bars) (*, P<0.05; n=3). […] Representative crystal violet stained images are shown (200×). Data represent mean+S.D. of three independent experiments. […] Graphical data shown below represent mean+S.D. (late apoptosis; annexin V-positive, PI-positive) of three independent experiments.
(§2) Cell proliferation, clonogenic, migration, invasion and apoptosis assays. Cell proliferation was determined via Cell Titer-Glo® luminescent cell assays (Promega). Clonogenic assays were done by plating a total of 1,000 cells per well in 24-well plates in a total volume of 400 μL using a two-layered soft agar system as previously described (Masri J, et al. (2007) Cancer Res 67: 11712-11720). Cell migration assays were conducted using precoated modified Boyden chambers as previously described (Benavides-Serrato A, et al. (2017) PLoS One 12: e0176599). […]

[3] = biological target: T1, total YAP (Homo sapiens, UniProt P46937); test: Total YAP ELISA in GBM cells; type: cell-based
T1 construct: endogenous in cells; host or cells: LN229
Description: Levels of total YAP were determined via ELISA. […] Immunoprecipitates were immunoblotted for the indicated proteins. […] Cells were treated with the indicated concentrations of inhibitor for 18 h and mRNA extracted for real time RT-PCR analyses. Measurements were performed in quadruplicate and means and+S.D. are shown. […] Cells were treated with (+) or without (−) NSC682769 (100 nM, 18 h) and harvested and separated into cytoplasmic and nuclear cellular fractions. Cytoplasmic versus nuclear material was subsequently immunoblotted for the indicated proteins. […] Values in top right corner of panels correspond to the percentage of nuclear localized YAP. Cells were grown on coverslips and treated with NSC682769. Cells were permeabilized and stained using primary antibody to YAP1 and FITC-conjugated secondary. Nuclei were stained with DAPI. Scale bar, 20 μm.
Surface plasmon resonance (SPR), ELISA, YAP-TEAD reporter activity, cellular fractionation, and immunofluorescence analyses. SPR experiments were carried out on a Nicoya OpenSPR™ instrument using immobilized YAP on a carboxyl-coated sensor. Binding was observed as the change in response units (RU) as analyte was injected at a flow rate of 10 μl/min at 25° C. TraceDrawer™ was used for kinetic analyses. The PathScan® total-YAP ELISA kit was obtained from Cell Signaling and used according to the manufacturer's instructions. YAP-TEAD reporter activity was determined as previously described (Kim N G, Gumbiner B M (2015) J Cell Biol 210: 503-515). HOP-flash contains multiple copies of wild-type TEAD-binding sites with a minimal promoter upstream of a luciferase reporter gene. Luciferase activity was measured via a luciferase assay system (Promega). Nuclear-cytoplasmic fractionation was performed according to Dignam et al. (Dignam J D, et al. (1983) Nucleic Acids Res 11: 1475-1489). Briefly, the buffers used were kept on ice and centrifugations were done at 4° C. with soft braking. After a single wash with PBS, cells were scraped with PBS (containing 1 mM DTT and 1× protease inhibitor) and harvested by centrifugation at 1000×g for 15 min. The cell pellet was gently resuspended with five times the volume of pellet with buffer A (10 mM HEPES, pH 7.9, 1.5 mM MgCl2, 10 mM KCl, 0.5 mM DTT, and 1× protease inhibitor) and incubated on ice for 15 min, followed by homogenization (Wheaton). Cell lysis was monitored by trypan blue staining. The cell lysate was spun at 1000×g for 5 min to collect the pellet as the nuclear fraction and the supernatant as the cytoplasmic fraction. […]

[4] = test system: LN229 and GBM39 cells; test: Annexin V-FITC/PI apoptosis by flow cytometry; type: cell-based, human; conditions: LN229 and GBM39, 48 h
Text: as §1, §2

T1 sequence (P46937 whole entry): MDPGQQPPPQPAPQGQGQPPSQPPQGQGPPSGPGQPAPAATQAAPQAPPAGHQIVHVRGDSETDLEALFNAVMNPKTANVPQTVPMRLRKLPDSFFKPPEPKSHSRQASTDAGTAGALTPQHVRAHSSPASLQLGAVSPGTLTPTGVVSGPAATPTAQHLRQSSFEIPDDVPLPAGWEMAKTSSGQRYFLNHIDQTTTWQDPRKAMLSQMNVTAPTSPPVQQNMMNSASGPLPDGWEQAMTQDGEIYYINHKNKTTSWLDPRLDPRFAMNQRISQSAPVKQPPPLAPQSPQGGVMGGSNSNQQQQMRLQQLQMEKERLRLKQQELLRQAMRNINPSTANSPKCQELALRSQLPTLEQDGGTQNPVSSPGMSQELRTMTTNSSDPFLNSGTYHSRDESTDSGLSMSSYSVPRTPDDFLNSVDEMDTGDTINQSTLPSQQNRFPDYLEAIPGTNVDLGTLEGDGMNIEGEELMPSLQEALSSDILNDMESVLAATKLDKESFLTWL

`COc1ccc(-c2cc(-c3ccccc3)nc3c2CC(=O)Nc2ccccc2-3)cc1OC` [NSC682769] was tested, and the “Toxicity to normal human neurons” value [1] was “minimal toxicity”, the Cell growth [2] was “significantly inhibited” and the DC50 ([3]; GBM39 cells, read-out: IC50, inhibition of total YAP (ELISA)) was 5.1 nM. The DC50 ([3]; LN229 cells, read-out: IC50, inhibition of total YAP (ELISA)) was 11.8 nM, the DC50 ([3]; LN229 cells, read-out: IC50 for YAP (ELISA)) was 11.8 nM and the DC50 ([3]; patient-derived GBM39 cells, read-out: IC50 for YAP (ELISA)) was 5.1 nM. For the same compound, the Apoptosis [4] was “enhanced”.
